Measured values reported in ChEMBL document CHEMBL1201862, “PubChem BioAssay data set” (2004).
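Growth conditions: 96-well plates. Treatment: test compound, 48 hours, 5 concentrations. Analysis: linear interpolation between bracketing concentrations; unreached endpoints set to highest concentration. Abbreviation: GI50, concentration required for 50% inhibition of growth.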 Activity calls are given as the source filed them. Cut-off read from the data, not from the text of the source: active = GI50 up to about 1.1 µM and inactive = higher.

Tests used:
Assay in all cases: DTP human tumour cell line panel, 48 h
ACHN = system: ACHN
CAKI-1 = system: CAKI-1
HL-60 = system: HL-60
KM12 = system: KM12
MDA-MB-231 = system: MDA-MB-231
MDA-MB-435 = system: MDA-MB-435
Malme-3M = system: Malme-3M
NCI-H226 = system: NCI-H226
NCI-H23 = system: NCI-H23
NCI-H522 = system: NCI-H522
NCI/ADR-RES = system: NCI/ADR-RES
SF-539 = system: SF-539
SK-MEL-28 = system: SK-MEL-28
SK-MEL-2 = system: SK-MEL-2
SK-OV-3 = system: SK-OV-3
SNB-19 = system: SNB-19
TK-10 = system: TK-10
U-251 = system: U-251
UO-31 = system: UO-31

Measured: GI50

Brc1cccc[n+]1-c1ccc2cc(-[n+]3ccccc3Br)ccc2c1
inactive: ACHN 17.7 µM | CAKI-1 > 100 µM | HL-60 28.6 µM | KM12 20.8 µM | MDA-MB-231 24.2 µM | MDA-MB-435 80.9 µM | Malme-3M 23.1 µM | NCI-H226 > 100 µM | NCI-H23 > 100 µM | NCI-H522 40.1 µM | NCI/ADR-RES 53.3 µM | SF-539 19.3 µM | SK-MEL-28 > 100 µM | SK-MEL-2 32.2 µM | SK-OV-3 3.01 µM | SNB-19 72.8 µM | TK-10 18.3 µM | U-251 15.6 µM | UO-31 18.1 µM

COc1ccc(CC2c3cc(OC)c(OC)c(OC)c3CC[N+]2(C)C)cc1Oc1ccc(CC2c3cc4c(c(OC)c3CC[N+]2(C)C)OCO4)cc1 (centres undefined)
inactive: ACHN > 100 µM | CAKI-1 > 100 µM | HL-60 > 100 µM | KM12 > 100 µM | MDA-MB-231 > 100 µM | MDA-MB-435 > 100 µM | Malme-3M > 100 µM | NCI-H226 > 100 µM | NCI-H23 > 100 µM | NCI-H522 > 100 µM | NCI/ADR-RES > 100 µM | SK-MEL-28 > 100 µM | SK-MEL-2 > 100 µM | SK-OV-3 > 100 µM | SNB-19 > 100 µM | TK-10 > 100 µM | U-251 > 100 µM | UO-31 > 100 µM

O=C(OC1=CCN(Br)C1=O)C1=C(O)C(=O)N(Br)C1
inactive: ACHN 33.9 µM | CAKI-1 58.7 µM | HL-60 24.5 µM | KM12 32.2 µM | MDA-MB-231 29.2 µM | MDA-MB-435 33.1 µM | Malme-3M 55 µM | NCI-H226 54 µM | NCI-H23 32.4 µM | NCI-H522 14.3 µM | NCI/ADR-RES > 100 µM | SK-MEL-28 18.8 µM | SK-MEL-2 26.4 µM | SK-OV-3 21.5 µM | SNB-19 20.2 µM | TK-10 33 µM | U-251 22.5 µM | UO-31 45.4 µM

COC(=O)c1ccc(/C=C(\c2ccc([N+](=O)[O-])o2)S(=O)(=O)c2ccc(NC(C)=O)cc2)o1
inactive: ACHN 3.09 µM | CAKI-1 15.4 µM | HL-60 3.03 µM | KM12 13.4 µM | MDA-MB-231 2.01 µM | MDA-MB-435 3.82 µM | Malme-3M 2.49 µM | NCI-H226 3.04 µM | NCI-H23 13.9 µM | NCI-H522 2.03 µM | NCI/ADR-RES 14.2 µM | SF-539 4.2 µM | SK-MEL-28 4.69 µM | SK-MEL-2 15.9 µM | SK-OV-3 19 µM | SNB-19 16.9 µM | TK-10 4.97 µM | U-251 14.1 µM | UO-31 4.49 µM
